Where two headings read alike, the source gives them in different places.
Columns and labels:
[1] = system: Leishmania donovani axenic amastigote parasites; assay: Leishmania donovani axenic amastigote proliferation assay; assay type: cell-based; settings: read-out: L. donovani amastigotes EC50
Method in brief: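 EC50 values come from CellTiter-Glo luminescence after 2-day compound exposure of axenic amastigotes (9600 per well) at 37 °C, 5% CO2. Medium: RPMI 1640, 20% heat-inactivated FBS, folic acid, adenosine, D-glucose, 25 mM MES, adjusted to pH 5.5.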

[2] = system: L. donovani HU3 strain in mouse peritoneal macrophages; assay: Assay for proliferation of Leishmania parasites in mouse peritoneal macrophages; assay type: cell-based, Leishmania donovani
Method in brief: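 EC50 derives from counting SYBR Green-stained parasite nuclei by high-content imaging after 5 days' compound exposure. Host cells were uninfected BALB/c peritoneal macrophages, infected for 24 h before dosing with spleen-derived L. donovani HU3 parasites from mice infected 9–11 weeks.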

[3] = system: Trypanosoma brucei Lister 427 strain bloodstream form; assay: Assay for proliferation of kinetoplastid parasite Trypanosoma brucei; assay type: cell-based; settings: read-out: T. brucei EC50
Method in brief: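 Bloodstream-form T. brucei Lister 427 in HMI-9 medium was exposed to compound (DMSO vehicle) for 48 hours at 37° C, 5% CO2. Parasite growth was read as ATP by CellTiter-Glo luminescence, with EC50 calculated from percent inhibition.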

[4] = system: Trypanosoma cruzi amastigotes (Tulahuen strain) cultured in 3T3 fibroblast cells; assay: Assay for proliferation of kinetoplastid parasite Trypanosoma cruzi; assay type: cell-based; settings: 144 h
Description: Assay for Proliferation of Kinetoplastid Parasite Trypanosoma cruzi.
Compounds of the invention can be assayed to measure their capacity to inhibit proliferation of kinetoplastid parasite Trypanosoma cruzi. The screening procedure is for identifying compounds with inhibitor activity against Trypanosoma cruzi amastigotes cultured in 3T3 fibroblast cells. The assay is done using the mammalian stage (amastigotes) of T. cruzi that replicates in the intracellular space of host cells. The host cells are initially infected with the culture-derived trypomastigotes that rapidly invade and then divide as amastigotes. The protocol uses the Tulahuen strain of T. cruzi that has been engineered to express the E. coli beta-galactosidase gene (Lac-Z) (Antimicr. Agents Chemoth. 40:2592, 1996). This allows for a colorimetric readout by using the substrate CPRG and an absorbance plate reader.
3T3 fibroblast cells are re-suspended in RPMI-1640 medium without phenol red medium supplemented with 10% FBS (heat inactivated), 100 μg/ml penicillin, and 100 μg/ml streptomycin. Forty μL of suspension (1,000 cells) is dispensed into 384-well plates and incubated overnight at 37° C. temperature and in atmosphere containing 5% CO2. The following day, 100 nL of compounds of the invention in DMSO are added to plate wells containing 3T3 cells. At the same time control compounds (benznidazole and nifurtimox) and DMSO are added to plates to serve as the positive and negative controls, respectively. After that, 10 μL of media containing 10,000 T. cruzi trypomastigotes are added to each plate well and plates are placed back into incubators. After 6 day incubation, 10 μL of reagent solution (0.6 mM CPRG, 0.6% NP-40 in PBS) is added to plates and incubated at room temperature for 2 hours. Absorbance is then measured on SpectraMax Gemini […] to determine relative number of T. cruzi cells present in each plate well. The percentage inhibition of 50%, EC50, is calculated for each compound. […] Typically, the EC50 is 10 μM or less.

[5] = Leishmania donovani, Peritoneal macrophage, read-out: L. donavani Macrophage EC50
[6] = Lister 427 bloodstream form, 48 hours
[7] = Tulahuen amastigotes in 3T3 fibroblast cells, 6 day incubation, read-out: T cruzi EC50
[8] = TULAHUEN, Fibroblast, read-out: T cruzi EC50
[9] = TULAHUEN, T. cruzi in 3T3 fibroblast cells, 6 day incubation, CPRG absorbance, read-out: EC50

Compound | EC50 ([1]; axenic amastigotes in vitro) | EC50 [2, 5] | EC50 [3, 6] | EC50 [4, 7] | EC50 [1] | EC50 ([3]; 48 h) | EC50 [4, 8] | EC50 [4, 9] | EC50 ([2]; L. donovani in mouse peritoneal macrophages, 5 days culture, SybrGreen parasite nuclei count, read-out: EC50) | EC50 ([2]; Leishmania donovani, Peritoneal macrophage, 120 h, L. donovani in mouse peritoneal macrophages, 5 days culture, SybrGreen parasite nuclei count, read-out: EC50) | EC50 ([4]; TULAHUEN, Fibroblast)
O=C1Cc2cc(-c3cnc4nc(-c5cc(NC(=O)C6CCCC6)ccc5Cl)[nH]c4c3)ccc2N1 [Compound 377] | 6.6 µM | 5.8 µM | 0.58 µM | 2.06 µM | – | – | – | – | – | – | –
Cc1cnc2nc(-c3cc(NC(=O)N(C)c4ccccc4)ccc3Cl)[nH]c2c1 [Compound 241] | 14.2 µM | > 47.5 µM | 9.7 µM | 10.4 µM | – | – | – | – | – | – | –
Cc1cnc2nc(-c3cc(NC(=O)OC4CCCC4)ccc3Cl)[nH]c2c1 [Compound 218] | > 25 µM | 7.5 µM | 14.9 µM | 2.14 µM | – | – | – | – | – | – | –
COc1cccc(C(=O)Nc2ccc(Cl)c(-c3nc4ncc(C)cc4[nH]3)c2)c1 [Compound 134] | 21.4 µM | 13.9 µM | 0.89 µM | 2.59 µM | – | – | – | – | – | – | –
Cc1cnc2nc(-c3cc(NC(=O)c4ccc(F)s4)ccc3Cl)[nH]c2c1 [Compound 185] | 11.2 µM | > 30.7 µM | 1.77 µM | 0.96 µM | – | – | – | – | – | – | –
CC(C)(C)OC(=O)N1CC=C(c2cnc3nc(-c4cc(NC(=O)c5ccco5)ccc4Cl)[nH]c3c2)CC1 [Compound 63] | 0.56 µM | 1.6 µM | 0.0217 µM | 0.108 µM | – | – | – | – | – | – | –
CCN(CC)CCCCCCNC(=O)Nc1ccc(Cl)c(-c2nc3ncc(C)cc3[nH]2)c1 [Compound 227] | > 25 µM | > 50 µM | > 15.2 µM | > 20 µM | – | – | – | – | – | – | –
Cc1cnc2nc(-c3cc(NC(=O)N4CCC(N(C)C)C4)ccc3Cl)[nH]c2c1 (stereo not shown) [Compound 233] | > 25 µM | > 50 µM | > 25 µM | > 20 µM | – | – | – | – | – | – | –
CCOC(=O)Nc1ccc(Cl)c(-c2nc3ncc(Br)cc3[nH]2)c1 [Example 370, Ethyl N-(3-{6-bromo-1H-imidazo[4,5-b]pyridin-2-yl}-4-chlorophenyl)carbamate] | – | 7.4 µM | – | – | 2.53 µM | 0.52 µM | 1.2 µM | – | – | – | –
Cc1cnc2nc(-c3cc(NC(=O)c4cncnc4)ccc3Cl)[nH]c2c1 [Compound 187] | 6.9 µM | > 42.2 µM | 4.2 µM | > 11.5 µM | – | – | – | – | – | – | –
Cc1cnc2nc(-c3cc(NC(=O)c4cccn4C)ccc3Cl)[nH]c2c1 [Compound 151] | 17.1 µM | 19.5 µM | 1.83 µM | 3.7 µM | – | – | – | – | – | – | –
CCN(C)C(=O)Nc1ccc(Cl)c(-c2nc3ncc(C)cc3[nH]2)c1 [Compound 242] | 4.3 µM | 25.5 µM | 0.36 µM | 1.38 µM | – | – | – | – | – | – | –
Cc1cnc2nc(-c3cc(NC(=O)c4ccc(S(C)(=O)=O)s4)ccc3Cl)[nH]c2c1 [Compound 175, N-(4-chloro-3-{6-methyl-1H-imidazo [4,5-b]pyridin-2-yl}phenyl)-5-methanesulfonylthiophene-2-carboxamide] | > 25 µM | > 28.9 µM | > 20.5 µM | 0.067 µM | – | – | – | 0.067 µM | – | – | –
Cc1cnc2nc(-c3cc(NC(=O)NCCN(C(C)C)C(C)C)ccc3Cl)[nH]c2c1 [Compound 236] | > 25 µM | 28.8 µM | 1.11 µM | 17.9 µM | – | – | – | – | – | – | –
O=C(Nc1ccc(Cl)c(-c2nc3ncc(-c4ccc(OCc5ccccc5)cc4)cc3[nH]2)c1)c1ccco1 [Compound 47] | 0.46 µM | > 7.2 µM | 0.04 µM | 0.104 µM | – | – | – | – | – | – | –
Cc1cnc2nc(-c3cc(NC(=O)c4ccccn4)ccc3Cl)[nH]c2c1 [Compound 83] | 7 µM | 23.3 µM | 0.93 µM | 1.3 µM | – | – | – | – | – | – | –
CN(C(=O)OC(C)(C)C)c1ccc(-c2cnc3nc(-c4cc(NC(=O)N5CCCC5)ccc4Cl)[nH]c3c2)cc1 [Compound 332, tert-butyl N-[4-(2-{2-chloro-5-[(pyrrolidin-1-yl)carbonylamino]phenyl}-1H-imidazo[4,5-b]pyridin-6-yl)phenyl]-N-methylcarbamate] | – | – | – | – | – | – | – | 0.006 µM | – | – | –

Compound | EC50 ([1]; axenic amastigotes in vitro) | EC50 [2, 5] | EC50 [3, 6] | EC50 [4, 7] | EC50 [1] | EC50 ([3]; 48 h) | EC50 [4, 8] | EC50 [4, 9] | EC50 ([2]; L. donovani in mouse peritoneal macrophages, 5 days culture, SybrGreen parasite nuclei count, read-out: EC50) | EC50 ([2]; Leishmania donovani, Peritoneal macrophage, 120 h, L. donovani in mouse peritoneal macrophages, 5 days culture, SybrGreen parasite nuclei count, read-out: EC50) | EC50 ([4]; TULAHUEN, Fibroblast)
Cc1cnc2nc(-c3cc(NC(=O)c4nccnc4O)ccc3Cl)[nH]c2c1 [Compound 174] | > 25 µM | > 50 µM | > 25 µM | > 20 µM | – | – | – | – | – | – | –
Cc1cnc2nc(-c3cc(NC(=O)NCCN(C)C)ccc3Cl)[nH]c2c1 [Example 226, 1-(4-Chloro-3-{6-methyl-1H-imidazo[4,5-b]pyridin-2-yl}phenyl)-3-[2-(dimethylamino)ethyl]urea] | – | > 50 µM | – | – | > 25 µM | > 22.2 µM | > 20 µM | – | – | – | –
Cc1cnc2nc(-c3cc(NC(=O)N4CC(F)(F)C[C@@H]4c4cccc(F)c4)ccc3Cl)[nH]c2c1 [Compound 229] | > 25 µM | > 50 µM | > 23.3 µM | > 20 µM | – | – | – | – | – | – | –
Cc1cnc2nc(-c3cc(NC(=O)N4CC5CC5C4)ccc3Cl)[nH]c2c1 (stereo not shown) [Compound 230] | 5.4 µM | 13.3 µM | 1.48 µM | 3.6 µM | – | – | – | – | – | – | –
Cc1cnc2nc(-c3cc(NC(=O)c4cnc[nH]4)ccc3Cl)[nH]c2c1 [Compound 128] | > 25 µM | > 50 µM | > 25 µM | > 20 µM | – | – | – | – | – | – | –
Cc1cnc2nc(-c3cc(NC(=O)N(C)C4CCOC4)ccc3Cl)[nH]c2c1 (stereo not shown) [Compound 232] | > 25 µM | > 50 µM | > 25 µM | > 20 µM | – | – | – | – | – | – | –
Cc1cnc2nc(-c3cc(NC(=O)OC(C)C)ccc3Cl)[nH]c2c1 [Compound 216] | 2.59 µM | 2.83 µM | 0.46 µM | 0.7 µM | – | – | – | – | – | – | –
Cc1cnc2nc(-c3cc(NC(=O)c4ccc(C)[nH]4)ccc3Cl)[nH]c2c1 [Compound 124] | > 25 µM | 13.8 µM | > 25 µM | > 14.3 µM | – | – | – | – | – | – | –
Cc1cnc2nc(-c3cc(NC(=O)NCCCCCCN(C)C)ccc3Cl)[nH]c2c1 [Compound 228] | > 25 µM | > 50 µM | > 25 µM | > 20 µM | – | – | – | – | – | – | –
Cc1cnc2nc(-c3cc(NC(=O)Cc4ccc(F)cc4)ccc3Cl)[nH]c2c1 [Compound 125] | > 25 µM | 8.6 µM | 10 µM | 9.6 µM | – | – | – | – | – | – | –
CS(=O)(=O)c1ccc(-c2cnc3nc(-c4cc(NC(=O)N5CCCC5)ccc4Cl)[nH]c3c2)cc1 [Compound 297] | 1.59 µM | 5.5 µM | 0.187 µM | 5.3 µM | – | – | – | – | – | – | –
O=C(Cc1cccc(Cl)c1)Nc1ccc(Cl)c(-c2nc3ncc(C(F)(F)F)cc3[nH]2)c1 [Compound 280] | 21.2 µM | 27.4 µM | > 13.6 µM | 3.4 µM | – | – | – | – | – | – | –
O=C(Nc1ccc(Cl)c(-c2nc3ncc(-c4ccccc4)cc3[nH]2)c1)N1CCCC1 [Example 291, N-(4-chloro-3-{6-phenyl-1H-imidazo[4,5-b]pyridin-2-yl}phenyl)pyrrolidine-1-carboxamide] | 0.076 µM | – | 0.0152 µM | – | – | – | 0.0161 µM | – | ~0.08 µM | 0.076 µM | 0.016 µM
Cc1cnc2nc(-c3cc(NC(=O)c4cccc(Cl)c4)ccc3Cl)[nH]c2c1 [Compound 89] | 3.7 µM | 9.2 µM | 0.26 µM | 0.175 µM | – | – | – | – | – | – | –
Cc1cnc2nc(-c3cc(NC(=O)c4cccc(N5CCCCC5)c4)ccc3Cl)[nH]c2c1 [Compound 99] | > 25 µM | > 50 µM | 6.3 µM | 5.5 µM | – | – | – | – | – | – | –
CNc1ccc(-c2cnc3nc(-c4cc(NC(=O)c5cnccn5)ccc4Cl)[nH]c3c2)cc1 [Compound 348] | 0.249 µM | 0.92 µM | 0.0239 µM | 0.064 µM | – | – | – | – | – | – | –
Cc1cnc2nc(-c3cc(NC(=O)c4cnc(Cl)cn4)ccc3Cl)[nH]c2c1 [Compound 135] | > 25 µM | > 25.9 µM | > 1.51 µM | > 20 µM | – | – | – | – | – | – | –

From patent US9233961B2, “Compounds and compositions for the treatment of parasitic diseases” (Novartis AG, priority 2013, dated 2016)
